{
  "source": "patent EP4796125A1",
  "about": "“TREATMENT OF PATIENT WITH NEGATIVE P53 GENE MUTATION, POSITIVE KRAS GENE MUTATION AND POSITIVE BRCA MUTATION” (Ascentawits Pharmaceuticals, Ltd., priority 2023, dated 2025)",
  "key": {"[1]": {"tested_on": "RAD51 protein in H460 cells", "experiment": "WB detection of RAD51 protein (level, degradation with MG-132, half-life with Cycloheximide)", "type": "cell-based", "conditions": "0.1 nM AST-3424, 5 µM Nutlin-3, then 5 µM MG-132 for 6 hours (Figure 21)", "method": "In the first experiment, the second experiment and the third experiment about the effect of the combination of AST-3424 and Nutlin-3 on Ser15-p53, Ser20-p53, Total p53, MDM2, and p21 proteins in H460 cells in Example 21, the applicant also performed WB detection of RAD51 protein.\n• 1) H460 cell suspension was added to a 24-well plate, with a cell density of 100000 cells/well and 995 µL of medium per well. • 2) The cells were cultured overnight in a 37°C, 5% CO2 incubator. • 3) Compound Treatment\nMonotherapy: 24 hours after cell plating, 5 µL of test compounds at different concentrations was added: 1% DMSO, 0.1 nM AST-3424, and 5 µM Nutlin-3. The plate was gently shaken to ensure even mixing, and then placed in a 37°C, 5% CO2 incubator. After culturing for another 24 hours, the cells were collected.\nCombination therapy: 24 hours after cell plating, • Adding 0.1 nM AST-3424 for pre-treatment for 2 hours, and then adding 5 µM Nutlin-3 for co-treatment for 22 hours; • Adding 1% DMSO and 5 µM MG-132 for co-treatment for 24 hours; • Adding 0.1 nM AST-3424 and 5 µM MG-132 for co-treatment for 24 hours; • Adding 5 µM Nutlin-3 and 5 µM MG-132 for co-treatment for 24 hours; • Adding 0.1 nM AST-3424 for pre-treatment for 2 hours, and then adding 5 µM Nutlin-3 for treatment for 16 hours, and then adding 5 µM MG-132 for co-treatment for 6 hours. […]"}, "[2]": {"tested_on": "NCI-H460 cells", "experiment": "In vitro proliferation under normoxia conditions (CTG, 72 hours), Example 29", "type": "cell-based", "method": "(§1) • 1) NCI-H460 and NCI-H460 P53KO # 1 cell suspensions were added to 96-well plate (100 µL per well), with a cell density of 2000 cells/well. • 2) The cells were cultured overnight in a 37°C, 5% CO2 incubator. • 3) Compound Treatment\n(§2) Monotherapy: 24 hours after cell plating, each well was supplemented with 99.5 µL of growth medium. Then, 0.5 µL of test compounds at different concentrations was added. The plate was gently shaken to ensure even mixing, and then placed in a 37°C, 5% CO2 incubator.\n(§3) Combination therapy: 24 hours after cell plating, each well was supplemented with 99 µL of growth medium. Then, 0.5 µL of the combination compound was added. The plate was gently shaken to ensure even mixing, and then placed in an incubator for 2 hours. Then, 0.5µL of test compounds at different concentrations was added. The plate was gently shaken to ensure even mixing, and then placed in a 37°C, 5% CO2 incubator. • 4) The cell plate was placed in the incubator for 72 hours. • 5) The cell plate to be tested was placed at room temperature and equilibrated for 30 minutes, and 100 µL of medium was discarded from each well. • 6) 25 µL of CTG reagent was added to each well, placed at a fast shaker to shake for 2 minutes, and placed at room temperature for 30 minutes (protected from light). • 7) The chemiluminescence signal value was read using a multifunctional microplate reader with a reading time of 1000 ms. • 8) IC50 (half maximal inhibitory concentration) values were calculated using GraphPad Prism 5 software."}, "[3]": {"tested_on": "NCI-H460 P53KO #1 cells", "experiment": "In vitro proliferation under normoxia conditions (CTG, 72 hours), Example 29", "type": "cell-based, human", "conditions": "Table 25", "method": "as §1, §2, §3"}, "[4]": {"tested_on": "cell lines and mouse tumor models of BRCA pathogenic mutations", "conditions": "in vitro and in vivo pharmacodynamic experiments; data of WO2023174319A; cited from earlier work"}, "[5]": {"tested_on": "HPAF-II cells", "experiment": "In vitro proliferation inhibition experiment (CTG, 72 hours), Example 20", "type": "cell-based, human", "conditions": "Homo sapiens, Table 15, HPAF-II, read-out: Inhibition rate/%", "method": "(§4) • 1) H460 and HPAF-II cell suspensions were added to a 96-well plate (100 µL per well), with cell densities of 2000 cells/well and 20000 cells/well, respectively. • 2) The cells were cultured overnight in a 37°C, 5% CO2 incubator. • 3) Compound Treatment\n(§5) Combination therapy: 24 hours after cell plating, each well was supplemented with 99 µL of growth medium. Then, 0.5 µL of Nutlin-3 or RITA was added to each well. The plate was gently shaken to ensure even mixing, and then placed in an incubator for 2 hours. Then, 0.5 µL of test compounds at different concentrations was added. The plate was gently shaken to ensure even mixing, and then placed in a 37°C, 5% CO2 incubator.\n(§6) Monotherapy: 24 hours after cell plating, each well was supplemented with 99.5 µL of growth medium. Then, 0.5 µL of test compounds at different concentrations was added. The plate was gently shaken to ensure even mixing, and then placed in a 37°C, 5% CO2 incubator. • 4) The cell plate was placed in the incubator for 72 hours. • 5) The cell plate to be tested was placed at room temperature and equilibrated for 30 minutes, and 100 µL of medium was discarded from each well. • 6) 25 µL of CTG reagent was added to each well, placed on a fast shaker to shake for 2 minutes, and placed at room temperature for 30 minutes (protected from light). • 7) The chemiluminescence signal value was read using a multifunctional microplate reader with a reading time of 1000 ms, and the corresponding inhibition rate data were calculated."}, "[6]": {"tested_on": "H460 cells", "experiment": "In vitro proliferation inhibition experiment (CTG, 72 hours), Example 20", "type": "cell-based", "conditions": "Homo sapiens, NCI-H460, read-out: Inhibition rate result / %", "method": "as §4, §5, §6"}, "[7]": {"tested_on": "NRF2 and AKR1C3 in HPAF II cells", "conditions": "0.875, 1.75, 3.5, 7 µM SFN, overnight, with increasing concentration", "method": "A solution of SFN compound (Sulforaphane, NRF2 activator) was added to HPAF II cell suspension. The mixture was cultured overnight in a 37°C, 5% CO2 incubator. The cell protein lysate was collected for Western Blotting (WB) detection. The experiment consisted of five groups: 0.5% DMSO, 0.875 µM SFN, 1.75 µM SFN, 3.5 µM SFN, and 7 µM SFN. HPAF II cells were treated with different concentrations of the NRF2 activator SFN, and then subjected to Western Blotting to detect the expressions of NRF2 and AKR1C3."}},
  "note": "pIC50: −log10 of the molar value. Peptide text beside a SMILES is read from it. * marks the point of attachment. Cbz = O=C(OCc1ccccc1)*",
  "data": [
    {"smiles": "CC(C)C[C@@H](C=O)NC(=O)[C@H](CC(C)C)NC(=O)[C@H](CC(C)C)NC(=O)OCc1ccccc1", "note": "[MG-132] (Cbz-Leu-Leu-Leu-aldehyde)", "values": [
      {"measurement": "RAD51 protein level after addition of MG-132", "setting": "[1]", "value": "reverses the downregulation of RAD51 protein"}
    ]},
    {"smiles": "CN(C)C(=O)c1cccc(Oc2cc3c(cc2[N+](=O)[O-])OCCC3OP(=O)(N2CC2)N2CC2)c1", "note": "(stereo not shown) [Compound C]", "values": [
      {"measurement": "pIC50", "setting": "[2]; Homo sapiens, Table 25, normoxia, alone or + 3 µM AST-3021", "value": 8.69},
      {"measurement": "Ratio, Compound C/AST-3424", "setting": "[2]; Table 25, IC50 ratio", "value": 4.77},
      {"measurement": "pIC50", "setting": "[3]; Homo sapiens, NCI-H460 P53KO # 1, normoxia, alone or + 3 µM AST-3021", "value": 7.44},
      {"measurement": "Ratio, knockout / wild-type", "setting": "[3]; IC50 in NCI-H460 P53KO # 1 / NCI-H460", "value": 17.60},
      {"measurement": "Ratio, Compound C/AST-3424", "setting": "[3]; NCI-H460 P53KO # 1, IC50 ratio", "value": 6.62}
    ]},
    {"smiles": "Cn1c(COP(=O)(NCCBr)NCCBr)cnc1[N+](=O)[O-]", "note": "[TH-302]", "values": [
      {"measurement": "sensitivity of cell lines and mouse tumor models of BRCA pathogenic mutations", "setting": "[4]", "value": "more sensitive"}
    ]},
    {"smiles": "OCc1ccc(-c2ccc(-c3ccc(CO)s3)o2)s1", "note": "[RITA]", "values": [
      {"measurement": "inhibition at 2.5 µM", "setting": "[5]; group 1: AST 60 nM, RITA 2.5 µM, AST + RITA 60+ 2.5", "value": 2.86, "unit": "%"},
      {"measurement": "inhibition at 5 µM", "setting": "[5]; group 2: AST 60 nM, RITA 5 µM, AST + RITA 60+ 5", "value": 5.56, "unit": "%"},
      {"measurement": "inhibition at 0.025 µM", "setting": "[6]; Table 13, H460, group 1: AST 0.5 nM, RITA 0.025 µM, AST + RITA 0.5+0.025", "value": 22.3, "unit": "%"},
      {"measurement": "inhibition at 0.05 µM", "setting": "[6]; Table 13, H460, group 2: AST 0.5 nM, RITA 0.05 µM, AST + RITA 0.5+0.05", "value": 22.4, "unit": "%"}
    ]},
    {"smiles": "C[S+]([O-])CCCCN=C=S", "note": "(stereo not shown) [SFN, Sulforaphane]", "values": [
      {"measurement": "expression of AKR1C3", "setting": "[7]", "value": "also increases simultaneously"},
      {"measurement": "expression of NRF2", "setting": "[7]", "value": "increases significantly"}
    ]}
  ]
}
